Where a SMILES comes first, the peptide text is derived from it. Bridges are numbered along the chain shown (N, C = ends). [ ]: non-standard residue; d: D form. The star is where a group is joined. ξ: configuration not given here. Phe(4-COOH) = N[C@@H](Cc1ccc(C(=O)O)cc1)C(=O)O; Bip = N[C@@H](Cc1ccc(-c2ccccc2)cc1)C(=O)O; Phe(3-Me) = Cc1cccc(C[C@H](N)C(=O)O)c1; Phe(4-F) = N[C@@H](Cc1ccc(F)cc1)C(=O)O; Val(3-OH) = CC(C)(O)[C@H](N)C(=O)O; 4Pal = N[C@@H](Cc1ccncc1)C(=O)O; 2Thi = N[C@@H](Cc1cccs1)C(=O)O; Cha = N[C@@H](CC1CCCCC1)C(=O)O; Cit = NC(=O)NCCC[C@H](N)C(=O)O; Ile(3ξ) = CCC(C)[C@H](N)C(=O)O; dCha = N[C@H](CC1CCCCC1)C(=O)O; Thr(3ξ) = CC(O)[C@H](N)C(=O)O; dNle = CCCC[C@@H](N)C(=O)O; Carboxymethyl = O=C(O)C*; Orn = NCCC[C@H](N)C(=O)O; Pra = C#CC[C@H](N)C(=O)O; Dab = NCC[C@H](N)C(=O)O; Dap = NC[C@H](N)C(=O)O
target: T1, human PD-1 / PD-L1-Ig binding on Jurkat cell line over-expressing human PD-1 (Jurkat-PD-1) (Homo sapiens, UniProt Q15116); experiment: Jurkat-PD-1 Cell Binding High-Content Screening Assay (CBA); type: cell-based; details: Jurkat-PD-1 cells, PE-labeled PD-L1-Ig 20 nM final; read-out: Jurkat HPD1_PDL1 IC50
T1 construct: expressed in transfected cells; host or cells: Jurkat
T1 sequence (Q15116 25-288): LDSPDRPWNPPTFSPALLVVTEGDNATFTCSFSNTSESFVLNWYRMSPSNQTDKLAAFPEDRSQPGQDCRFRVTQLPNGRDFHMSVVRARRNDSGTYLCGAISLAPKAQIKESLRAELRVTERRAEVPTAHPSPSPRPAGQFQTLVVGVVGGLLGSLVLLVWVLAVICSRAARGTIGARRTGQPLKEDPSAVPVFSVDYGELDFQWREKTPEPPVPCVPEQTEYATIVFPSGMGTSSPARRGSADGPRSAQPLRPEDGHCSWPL
Outline: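 Cell-bound PE-labeled PD-L1-Ig (20 nM final, 1 h) measured by high-content imaging after fixation and Hoechst 33342 counterstain. Compound was applied first for 2 h at 37° C. to Jurkat cells over-expressing human PD-1 in DMEM with 10% FCS.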

IC50 | SMILES
9.3 nM | C#CC[C@H](NC(=O)[C@H](CCN)NC(=O)[C@@H]1CSCC(=O)N[C@@H]([C@@H](C)O)C(=O)N[C@@H](Cc2ccc(OCC(=O)O)cc2)C(=O)N[C@@H](CC(=O)O)C(=O)N[C@@H](Cc2cccc(C)c2)C(=O)N[C@@H](Cc2ccc(C(=O)O)cc2)C(=O)N[C@@H](Cc2ccc(-c3ccccc3)cc2)C(=O)N[C@@H](Cc2ccc(C(=O)O)cc2)C(=O)N[C@@H](CCCN)C(=O)N[C@H](CC(C)C)C(=O)N[C@@H](CCN)C(=O)N[C@@H](CC2CCCCC2)C(=O)N[C@@H](C(C)C)C(=O)N[C@@H](CCC(=O)O)C(=O)N1)C(=O)O [Compound 1824] ({CH2CO}-TY(Carboxymethyl)D[Phe(3-Me)][Phe(4-COOH)][Bip][Phe(4-COOH)][Orn][dL][Dab][Cha]VEC[Dab][Pra]-OH; thioether N-14)
6 nM | Cc1cccc(C[C@@H]2NC(=O)[C@H](CC(=O)O)NC(=O)[C@H](Cc3ccc(F)cc3)NC(=O)[C@H](C(C)O)NC(=O)CSC[C@@H](C(=O)N[C@@H](CCN)C(N)=O)NC(=O)[C@H](C(C)O)NC(=O)[C@H](C(C)(C)O)NC(=O)[C@H](CC3CCCCC3)NC(=O)[C@H](CCN)NC(=O)[C@@H](CC(C)C)NC(=O)[C@H](CCCN)NC(=O)[C@H](Cc3ccc(C(=O)O)cc3)NC(=O)[C@H](Cc3ccc(-c4ccccc4)cc3)NC(=O)[C@H](Cc3ccc(C(=O)O)cc3)NC2=O)c1 (stereo partly drawn) [Compound 2685] ({CH2CO}-[Thr(3ξ)][Phe(4-F)]D[Phe(3-Me)][Phe(4-COOH)][Bip][Phe(4-COOH)][Orn][dL][Dab][Cha][Val(3-OH)][Thr(3ξ)]C[Dab]-NH2; thioether N-14)
3.6 nM | Cc1cccc(C[C@@H]2NC(=O)[C@H](CC(=O)O)NC(=O)[C@H](Cc3ccc(OCC(=O)O)cc3)NC(=O)[C@H](Cc3ccncc3)NC(=O)CSC[C@@H](C(=O)N[C@@H](CCN)C(N)=O)NC(=O)[C@H](CO)NC(=O)[C@H](C(C)(C)O)NC(=O)[C@H](CC3CCCCC3)NC(=O)[C@H](CCN)NC(=O)[C@@H](CC(C)C)NC(=O)[C@H](CCCN)NC(=O)[C@H](Cc3ccc(OCC(=O)O)cc3)NC(=O)[C@H](Cc3ccc(-c4ccccc4)cc3)NC(=O)[C@H](Cc3ccc(OCC(=O)O)cc3)NC2=O)c1 [Compound 2057] ({CH2CO}-[4Pal]Y(Carboxymethyl)D[Phe(3-Me)]Y(Carboxymethyl)[Bip]Y(Carboxymethyl)[Orn][dL][Dab][Cha][Val(3-OH)]SC[Dab]-NH2; thioether N-14)
35.8 nM | CCCC[C@H]1NC(=O)[C@H](CCCN)NC(=O)[C@H](CCCNC(N)=O)NC(=O)[C@H](Cc2ccc(-c3ccccc3)cc2)NC(=O)[C@H](C(C)C)NC(=O)[C@H](Cc2c[nH]c3ccccc23)NC(=O)[C@H](CC(=O)O)NC(=O)[C@H](Cc2ccc(O)cc2)NC(=O)[C@H](CC(N)=O)NC(=O)CSC[C@@H](C(=O)N[C@@H](C)C(N)=O)NC(=O)[C@H]([C@@H](C)O)NC(=O)[C@H](C(C)C)NC(=O)[C@H](CC2CCCCC2)NC(=O)[C@H](CCN)NC1=O [Compound 1704] ({CH2CO}-NYDWV[Bip][Cit][Orn][dNle][Dab][Cha]VTCA-NH2; thioether N-14)
6.3 nM | Cc1cccc(C[C@@H]2NC(=O)[C@H](CC(=O)O)NC(=O)[C@H](Cc3ccc(OCC(=O)O)cc3)NC(=O)[C@H](Cc3cccs3)NC(=O)CSC[C@@H](C(=O)N[C@@H](CCN)C(N)=O)NC(=O)[C@H]([C@@H](C)O)NC(=O)[C@H](C(C)(C)O)NC(=O)[C@H](CC3CCCCC3)NC(=O)[C@H](CCN)NC(=O)[C@@H](CC(C)C)NC(=O)[C@H](CCCN)NC(=O)[C@H](Cc3ccc(OCC(=O)O)cc3)NC(=O)[C@H](Cc3ccc(-c4ccccc4)cc3)NC(=O)[C@H](Cc3ccc(OCC(=O)O)cc3)NC2=O)c1 [Compound 2067] ({CH2CO}-[2Thi]Y(Carboxymethyl)D[Phe(3-Me)]Y(Carboxymethyl)[Bip]Y(Carboxymethyl)[Orn][dL][Dab][Cha][Val(3-OH)]TC[Dab]-NH2; thioether N-14)
12 nM | CCCC[C@@H]1NC(=O)[C@H](CCN)NC(=O)[C@@H](CC(C)C)NC(=O)[C@H](CCCN)NC(=O)[C@H]([C@@H](C)CC)NC(=O)[C@H](Cc2ccc(-c3ccccc3)cc2)NC(=O)[C@H](C(C)C)NC(=O)[C@H](Cc2cccc(C)c2)NC(=O)[C@H](CC(=O)O)NC(=O)[C@H](Cc2ccc(OCC(=O)O)cc2)NC(=O)[C@H](Cc2ccncc2)NC(=O)CSC[C@@H](C(=O)N[C@@H](C)C(N)=O)NC(=O)[C@H]([C@@H](C)O)NC(=O)[C@H](C(C)C)NC1=O [Compound 1197]
15.9 nM | CC[C@H](C)[C@@H]1NC(=O)[C@H](Cc2ccc(-c3ccccc3)cc2)NC(=O)[C@H](C(C)C)NC(=O)[C@H](Cc2cccc(C)c2)NC(=O)[C@H](CC(=O)O)NC(=O)[C@H](Cc2ccc(C(=O)O)cc2)NC(=O)[C@H](Cc2ccncc2)NC(=O)CSC[C@@H](C(N)=O)NC(=O)[C@H]([C@@H](C)O)NC(=O)[C@H](C(C)C)NC(=O)[C@H](CC2CCCCC2)NC(=O)[C@H](CCN)NC(=O)[C@@H](CC(C)C)NC(=O)[C@H](CCCN)NC1=O [Compound 1547] ({CH2CO}-[4Pal][Phe(4-COOH)]D[Phe(3-Me)]V[Bip]I[Orn][dL][Dab][Cha]VTC-NH2; thioether N-14)
24.3 nM | C#CC[C@H](NC(=O)CNC(=O)[C@@H]1CSCC(=O)N[C@@H](CCN)C(=O)N[C@@H](Cc2ccc(OCC(=O)O)cc2)C(=O)N[C@@H](CC(=O)O)C(=O)N[C@@H](Cc2c[nH]c3ccccc23)C(=O)N[C@@H](C(C)C)C(=O)N[C@@H](Cc2ccc(-c3ccccc3)cc2)C(=O)N[C@@H](C(C)CC)C(=O)N[C@@H](CCCN)C(=O)N[C@H](CC(C)C)C(=O)N[C@@H](CCN)C(=O)N[C@@H](CC2CCCCC2)C(=O)N[C@@H](C(C)(C)O)C(=O)N[C@@H](CO)C(=O)N1)C(=O)O (stereo partly drawn) [Compound 2319] ({CH2CO}-[Dab]Y(Carboxymethyl)DWV[Bip][Ile(3ξ)][Orn][dL][Dab][Cha][Val(3-OH)]SCG[Pra]-OH; thioether N-14)
18.1 nM | CC(C)[C@@H]1NC(=O)[C@H](Cc2c[nH]c3ccccc23)NC(=O)[C@H](CC(=O)O)NC(=O)[C@H](Cc2ccc(OCC(=O)O)cc2)NC(=O)[C@H](CN)NC(=O)CSC[C@@H](C(=O)N[C@@H](C)C(N)=O)NC(=O)[C@H]([C@@H](C)O)NC(=O)[C@H](C(C)C)NC(=O)[C@H](CC2CCCCC2)NC(=O)[C@H](CCN)NC(=O)[C@@H](CC2CCCCC2)NC(=O)[C@H](CCCN)NC(=O)[C@H](C(C)C)NC(=O)[C@H](Cc2ccc(-c3ccccc3)cc2)NC1=O [Compound 1635] ({CH2CO}-[Dap]Y(Carboxymethyl)DWV[Bip]V[Orn][dCha][Dab][Cha]VTCA-NH2; thioether N-14)
49.7 nM | CC(C)C[C@H]1NC(=O)[C@H](CCCN)NC(=O)[C@H](CCCNC(N)=O)NC(=O)[C@H](Cc2ccc(-c3ccccc3)cc2)NC(=O)[C@H](C(C)C)NC(=O)[C@H](Cc2c[nH]c3ccccc23)NC(=O)[C@H](CC(=O)O)NC(=O)[C@H](Cc2ccc(OCC(=O)O)cc2)NC(=O)[C@H](CN)NC(=O)CSC[C@@H](C(=O)N[C@@H](C)C(N)=O)NC(=O)[C@H](C(C)C)NC(=O)[C@H](C(C)C)NC(=O)[C@H](CC2CCCCC2)NC(=O)[C@H](CCN)NC1=O [Compound 1319] ({CH2CO}-[Dap]Y(Carboxymethyl)DWV[Bip][Cit][Orn][dL][Dab][Cha]VVCA-NH2; thioether N-14)

From patent US20250163104A1, “MACROCYCLIC IMMUNOMODULATORS” (priority 2021, published 2025)
